Reference: patent US20230183193A1, “4-DIFLUOROMETHYL BENZOYL AMIDES WITH HERBICIDAL ACTION” (BAYER CROPSCIENCE AKTIENGESELLSCHAFT, priority 2017, published 2023)

Assays:
Alopecurus myosuroides [1] = assay: Pre-emergence herbicidal action, ALOMY; format: in vivo; settings: for herbicidal activity ALOMY: dosage 320 g/ha, scored visually after 3 weeks vs untreated controls
Procedure, shortened: (§1)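 Percent herbicidal activity rated by eye 3 weeks after pre-emergence soil-surface application, compared with untreated pots. Seeds sat under sandy loam; sprays carried 0.2% wetting agent.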

Abutilon theophrasti [2] = assay: Pre-emergence herbicidal action, ABUTH; format: in vivo; settings: for herbicidal activity ABUTH: scored visually after 3 weeks vs untreated controls
Procedure, shortened: as §1

Pharbitis purpureum = assay: Post-emergence herbicidal action, PHBPU; format: in vivo; settings: 80 g/ha, Table D
Procedure, shortened: (§2)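 Post-emergence spray; one-leaf stage (2–3 wk after sowing), sandy loam, greenhouse. WP/EC in water, 600 to […], +0.2% wetting agent. Visual % damage vs untreated at ~3 wk; 100% = plants dead.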

ECHCG [3] = assay: Pre-emergence herbicidal action, ECHCG; format: in vivo; settings: 80 g/ha, comparison with WO 2011035874, Table G
Excerpt: (§3) 1. Pre-Emergence Herbicidal Action Against Harmful Plants Seeds of monocotyledonous and dicotyledonous weed plants and crop plants are laid out in sandy loam soil in wood-fiber pots and covered with soil. The compounds of the invention, formulated in the form of wettable powders (WP) or as emulsion concentrates (EC), are then applied to the surface of the covering soil in the form of an aqueous suspension or emulsion at a water application rate equating to […], with addition of 0.2% wetting agent. After the treatment, the pots are placed in a greenhouse and kept under good growth conditions for the trial plants. The damage to the test plants is scored visually after a test period of 3 weeks by comparison with untreated controls (herbicidal activity in percent (%): 100% activity=the plants have died, 0% activity=like control plants).

Amaranthus retroflexus [4] = assay: Post-emergence herbicidal action, AMARE; format: in vivo; settings: 80 g/ha, Table D
Procedure, shortened: as §2

Amaranthus retroflexus [5] = assay: Pre-emergence herbicidal action, AMARE; format: in vivo; settings: for herbicidal activity AMARE: dosage 320 g/ha, scored visually after 3 weeks vs untreated controls
Procedure, shortened: as §1

ECHCG [6] = assay: Pre-emergence herbicidal action, ECHCG; format: in vivo, Echinochloa crus-galli
Avena fatua [7] = assay: Post-emergence herbicidal action, AVEFA; format: in vivo; settings: for herbicidal activity AVEFA: Table C
Procedure, shortened: as §2

ECHCG [8] = assay: Post-emergence herbicidal action, ECHCG; format: in vivo; settings: 80 g/ha, Table C
Procedure, shortened: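 Weed and crop plants grown in sandy loam in the greenhouse, treated at the one-leaf stage 2–3 weeks after sowing. Damage scored visually after about 3 weeks vs untreated controls (0% = control, 100% = dead).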

Setaria viridis [9] = assay: Pre-emergence herbicidal action, SETVI; format: in vivo; settings: for herbicidal activity SETVI: dosage 320 g/ha, scored visually after 3 weeks vs untreated controls
Procedure, shortened: as §1

Stellaria media [10] = assay: Pre-emergence herbicidal action, STEME; format: in vivo; settings: for Herbicidal activity STEME: dosage 320 g/ha, scored visually after 3 weeks vs untreated controls
Procedure, shortened: as §1

Avena fatua [11] = assay: Pre-emergence herbicidal action, AVEFA; format: in vivo; settings: for herbicidal activity AVEFA: dosage 320 g/ha, scored visually after 3 weeks vs untreated controls
Procedure, shortened: as §1

Viola tricolor [12] = assay: Pre-emergence herbicidal action, VIOTR; format: in vivo; settings: for herbicidal activity VIOTR: scored visually after 3 weeks vs untreated controls
Procedure, shortened: as §1

Polygonum convolvulus = assay: Pre-emergence herbicidal action, POLCO; format: in vivo
Excerpt: as §3
(§4) For comparison, the herbicidal activity of numerous compounds according to the invention was tested with the structurally closest compounds known from the documents WO 2011/035874, WO 2012/028579 and WO 2012/126932, by the pre- and post-emergence method.

Alopecurus myosuroides [13] = assay: Post-emergence herbicidal action, ALOMY; format: in vivo
Procedure, shortened: as §2

Matricaria inodora = assay: Pre-emergence herbicidal action, MATIN; format: in vivo; settings: for Herbicidal efficacy against MATIN: Table K; for herbicidal activity MATIN: scored visually after 3 weeks vs untreated controls
Procedure, shortened: as §1

Stellaria media [14] = assay: Post-emergence herbicidal action, STEME; format: in vivo; settings: for Herbicidal activity STEME: Table D
Procedure, shortened: as §2

Cyperus serotinus = assay: Pre-emergence herbicidal action, CYPES; format: in vivo; settings: for herbicidal activity CYPES: dosage 320 g/ha, scored visually after 3 weeks vs untreated controls
Procedure, shortened: as §1

Abutilon theophrasti [15] = assay: Post-emergence herbicidal action, ABUTH; format: in vivo; settings: 80 g/ha; for herbicidal activity ABUTH: Table D
Procedure, shortened: as §2

Veronica persica = assay: Pre-emergence herbicidal action, VERPE; format: in vivo; settings: 80 g/ha, comparison with WO 2011035874, Table H
Excerpt: as §3, §4

Viola tricolor [16] = assay: Post-emergence herbicidal action, VIOTR; format: in vivo; settings: for herbicidal activity VIOTR: Table D
Procedure, shortened: as §2

Setaria viridis [17] = assay: Post-emergence herbicidal action, SETVI; format: in vivo; settings: for herbicidal activity SETVI: Table C
Procedure, shortened: as §2

[18] = 80 g/ha, comparison with WO 2011035874, Table G
[19] = 80 g/ha, comparison with WO 2011035874, Table H

SMILES: Cn1nnnc1NC(=O)c1ccc(C(F)F)c(S(C)(=O)=O)c1Cl [Example 1-51]
- Herbicidal efficacy against ALOMY (Alopecurus myosuroides [1]; 20 g/ha): 80
- Herbicidal efficacy against ALOMY (Alopecurus myosuroides [1]; 80 g/ha): 100
- Herbicidal efficacy against ALOMY (Alopecurus myosuroides [1]; [18]): 10%
- Herbicidal efficacy against ALOMY (Alopecurus myosuroides [1]; 320 g/ha): 100
- herbicidal activity ALOMY (Alopecurus myosuroides [1]): 100%
- Herbicidal efficacy against ABUTH (Abutilon theophrasti [2]; [18]): 100%
- Herbicidal efficacy against ABUTH (Abutilon theophrasti [2]; dosage 20 g/ha, Table K): 100
- Herbicidal efficacy against ABUTH (Abutilon theophrasti [2]; dosage 80 g/ha, Table K): 100
- Herbicidal efficacy against ABUTH (Abutilon theophrasti [2]; dosage 320 g/ha, Table K): 100
- herbicidal activity ABUTH (Abutilon theophrasti [2]; dosage 320 g/ha): 100%
- Herbicidal activity PHBPU (Pharbitis purpureum): 100%
- Herbicidal efficacy against ECHCG (ECHCG [3]): 30%
- herbicidal activity AMARE (Amaranthus retroflexus [4]): 100%
- Herbicidal efficacy against AMARE (Amaranthus retroflexus [5]; [19]): 100%
- herbicidal activity AMARE (Amaranthus retroflexus [5]): 100%
- Herbicidal efficacy against ECHCG (ECHCG [6]; 20 g/ha): 100
- Herbicidal efficacy against ECHCG (ECHCG [6]; 80 g/ha): 100
- Herbicidal efficacy against ECHCG (ECHCG [6]; 320 g/ha): 100
- Herbicidal efficacy against AVEFA (Avena fatua [7]; 5 g/ha): 60
- Herbicidal efficacy against AVEFA (Avena fatua [7]; 20 g/ha): 90
- Herbicidal efficacy against AVEFA (Avena fatua [7]; 80 g/ha): 100
- herbicidal activity AVEFA (Avena fatua [7]; 80 g/ha): 100%
- Herbicidal activity ECHCG (ECHCG [8]): 100%
- Herbicidal efficacy against SETVI (Setaria viridis [9]; 20 g/ha): 100
- Herbicidal efficacy against SETVI (Setaria viridis [9]; 80 g/ha): 100
- Herbicidal efficacy against SETVI (Setaria viridis [9]; [18]): 60%
- Herbicidal efficacy against SETVI (Setaria viridis [9]; 320 g/ha): 100
- herbicidal activity SETVI (Setaria viridis [9]): 100%
- Herbicidal efficacy against STEME (Stellaria media [10]; [19]): 90%
- Herbicidal activity STEME (Stellaria media [10]): 100%
- Herbicidal efficacy against AVEFA (Avena fatua [11]; 80 g/ha): 90
- Herbicidal efficacy against AVEFA (Avena fatua [11]; [18]): 0%
- Herbicidal efficacy against AVEFA (Avena fatua [11]; 320 g/ha): 100
- herbicidal activity AVEFA (Avena fatua [11]): 100%
- Herbicidal efficacy against VIOTR (Viola tricolor [12]; [19]): 60%
- Herbicidal efficacy against VIOTR (Viola tricolor [12]; dosage 20 g/ha, Table K): 100
- Herbicidal efficacy against VIOTR (Viola tricolor [12]; dosage 80 g/ha, Table K): 100
- Herbicidal efficacy against VIOTR (Viola tricolor [12]; dosage 320 g/ha, Table K): 100
- herbicidal activity VIOTR (Viola tricolor [12]; dosage 320 g/ha): 100%
- Herbicidal efficacy against POLCO (Polygonum convolvulus; [19]): 0%
- Herbicidal efficacy against POLCO (Polygonum convolvulus; dosage 20 g/ha, Table K): 30
- Herbicidal efficacy against POLCO (Polygonum convolvulus; dosage 80 g/ha, Table K): 80
- Herbicidal efficacy against POLCO (Polygonum convolvulus; dosage 320 g/ha, Table K): 90
- Herbicidal efficacy against ALOMY (Alopecurus myosuroides [13]; 5 g/ha): 40
- Herbicidal efficacy against ALOMY (Alopecurus myosuroides [13]; 20 g/ha): 90
- Herbicidal efficacy against ALOMY (Alopecurus myosuroides [13]; 80 g/ha): 100
- herbicidal activity ALOMY (Alopecurus myosuroides [13]; 80 g/ha, Table C): 100%
- Herbicidal efficacy against MATIN (Matricaria inodora; dosage 20 g/ha): 90
- Herbicidal efficacy against MATIN (Matricaria inodora; dosage 80 g/ha): 100
- Herbicidal efficacy against MATIN (Matricaria inodora; dosage 320 g/ha): 100
- herbicidal activity MATIN (Matricaria inodora; dosage 320 g/ha): 100%
- Herbicidal efficacy against STEME (Stellaria media [14]; 5 g/ha): 100
- Herbicidal efficacy against STEME (Stellaria media [14]; 20 g/ha): 100
- Herbicidal efficacy against STEME (Stellaria media [14]; 80 g/ha): 100
- Herbicidal activity STEME (Stellaria media [14]; 80 g/ha): 100%
- Herbicidal efficacy against STEME (Stellaria media [14]; 80 g/ha, comparison with WO2011035874, Table F): 40%
- Herbicidal efficacy against CYPES (Cyperus serotinus; 20 g/ha): 90
- Herbicidal efficacy against CYPES (Cyperus serotinus; 80 g/ha): 90
- Herbicidal efficacy against CYPES (Cyperus serotinus; [18]): 0%
- Herbicidal efficacy against CYPES (Cyperus serotinus; 320 g/ha): 100
- herbicidal activity CYPES (Cyperus serotinus): 100%
- herbicidal activity ABUTH (Abutilon theophrasti [15]): 100%
- Herbicidal efficacy against ABUTH (Abutilon theophrasti [15]; comparison with WO2011035874, Table F): 80%
- Herbicidal efficacy against VERPE (Veronica persica): 100%
- Herbicidal efficacy against VIOTR (Viola tricolor [16]; 5 g/ha): 100
- Herbicidal efficacy against VIOTR (Viola tricolor [16]; 20 g/ha): 100
- Herbicidal efficacy against VIOTR (Viola tricolor [16]; 80 g/ha): 100
- herbicidal activity VIOTR (Viola tricolor [16]; 80 g/ha): 100%
- Herbicidal efficacy against SETVI (Setaria viridis [17]; 5 g/ha): 90
- Herbicidal efficacy against SETVI (Setaria viridis [17]; 20 g/ha): 100
- Herbicidal efficacy against SETVI (Setaria viridis [17]; 80 g/ha): 100
- herbicidal activity SETVI (Setaria viridis [17]; 80 g/ha): 100%

SMILES: Cc1c(C(=O)Nc2ncnn2C)ccc(C(F)F)c1S(C)(=O)=O [Example 4-3]
- Herbicidal efficacy against ALOMY (Alopecurus myosuroides [1]; 80 g/ha): 60
- Herbicidal efficacy against ALOMY (Alopecurus myosuroides [1]; 320 g/ha): 90
- herbicidal activity ALOMY (Alopecurus myosuroides [1]): 90%
- Herbicidal efficacy against ABUTH (Abutilon theophrasti [2]; dosage 80 g/ha, Table K): 100
- Herbicidal efficacy against ABUTH (Abutilon theophrasti [2]; dosage 320 g/ha, Table K): 100
- herbicidal activity ABUTH (Abutilon theophrasti [2]; dosage 320 g/ha): 100%
- Herbicidal activity PHBPU (Pharbitis purpureum): 100%
- herbicidal activity AMARE (Amaranthus retroflexus [4]): 100%
- herbicidal activity AMARE (Amaranthus retroflexus [5]): 100%
- Herbicidal efficacy against ECHCG (ECHCG [6]; 80 g/ha): 100
- Herbicidal efficacy against ECHCG (ECHCG [6]; 320 g/ha): 100
- Herbicidal efficacy against AVEFA (Avena fatua [7]; 20 g/ha): 50
- herbicidal activity AVEFA (Avena fatua [7]; 80 g/ha): 90%
- Herbicidal activity ECHCG (ECHCG [8]): 100%
- Herbicidal efficacy against SETVI (Setaria viridis [9]; 80 g/ha): 90
- Herbicidal efficacy against SETVI (Setaria viridis [9]; 320 g/ha): 100
- herbicidal activity SETVI (Setaria viridis [9]): 100%
- Herbicidal activity STEME (Stellaria media [10]): 100%
- Herbicidal efficacy against AVEFA (Avena fatua [11]; 80 g/ha): 30
- Herbicidal efficacy against AVEFA (Avena fatua [11]; 320 g/ha): 80
- herbicidal activity AVEFA (Avena fatua [11]): 80%
- Herbicidal efficacy against VIOTR (Viola tricolor [12]; dosage 80 g/ha, Table K): 100
- Herbicidal efficacy against VIOTR (Viola tricolor [12]; dosage 320 g/ha, Table K): 100
- herbicidal activity VIOTR (Viola tricolor [12]; dosage 320 g/ha): 100%
- Herbicidal efficacy against POLCO (Polygonum convolvulus; dosage 80 g/ha, Table K): 40
- Herbicidal efficacy against POLCO (Polygonum convolvulus; dosage 320 g/ha, Table K): 70
- Herbicidal efficacy against ALOMY (Alopecurus myosuroides [13]; 20 g/ha): 30
- Herbicidal efficacy against MATIN (Matricaria inodora; dosage 80 g/ha): 100
- Herbicidal efficacy against MATIN (Matricaria inodora; dosage 320 g/ha): 100
- herbicidal activity MATIN (Matricaria inodora; dosage 320 g/ha): 100%
- Herbicidal efficacy against STEME (Stellaria media [14]; 20 g/ha): 60
- Herbicidal activity STEME (Stellaria media [14]; 80 g/ha): 90%
- Herbicidal efficacy against CYPES (Cyperus serotinus; 80 g/ha): 100
- Herbicidal efficacy against CYPES (Cyperus serotinus; 320 g/ha): 100
- herbicidal activity CYPES (Cyperus serotinus): 100%
- herbicidal activity ABUTH (Abutilon theophrasti [15]): 100%
- Herbicidal efficacy against VIOTR (Viola tricolor [16]; 20 g/ha): 100
- herbicidal activity VIOTR (Viola tricolor [16]; 80 g/ha): 100%
- Herbicidal efficacy against SETVI (Setaria viridis [17]; 20 g/ha): 40
- herbicidal activity SETVI (Setaria viridis [17]; 80 g/ha): 100%
